Reference: US20100298141A1, “SUBSTITUTED PYRIDINE N-OXIDE HERBICIDES” (E. I. DU PONT DE NEMOURS AND COMPANY, priority 2007, published 2010)

Columns and labels:
[1] = system: redroot pigweed; assay: Test A pre-/postemergence greenhouse test; format: in vivo, Amaranthus retroflexus; conditions: for Plant response rating, Pigweed: 0 to 100 scale where 0 is no effect and 100 is complete control; for Pigweed plant response rating: 0 to 100 scale
In short: (§1)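 Test compounds in non-phytotoxic solvent with surfactant were applied as a preemergence soil spray to seeded loam/sand pots and, concurrently, postemergence to plants at 2–10 cm, one- to two-leaf stage. About ten days in greenhouse, then injury visually rated against untreated controls.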

[2] = system: corn; assay: Test A pre-/postemergence greenhouse test; format: in vivo, Zea mays; conditions: for Plant response rating, Corn: 0 to 100 scale where 0 is no effect and 100 is complete control; for Corn plant response rating: 0 to 100 scale
In short: as §1

[3] = system: blackgrass; assay: Test C pre-/postemergence test; format: in vivo, Alopecurus myosuroides
In short: (§2)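 Test chemicals were formulated with surfactant in a non-phytotoxic solvent and sprayed both on freshly planted seeds (preemergence) and on 1- to 4-leaf plants of 2–18 cm (postemergence). Flooded-paddy pots received compound directly into 3 cm of standing water, maintained for the test.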

[4] = system: wheat; assay: Test C pre-/postemergence test; format: in vivo, Triticum aestivum
In short: as §2

[5] = system: wild oat; assay: Test C pre-/postemergence test; format: in vivo, Avena fatua
In short: as §2

[6] = system: bermudagrass; assay: Test C pre-/postemergence test; format: in vivo, Cynodon dactylon
In short: as §2

[7] = system: Surinam grass; assay: Test C pre-/postemergence test; format: in vivo, Brachiaria decumbens
In short: as §2

[8] = system: crabgrass; assay: Test C pre-/postemergence test; format: in vivo, Digitaria sanguinalis
In short: as §2

[9] = system: kochia; assay: Test C pre-/postemergence test; format: in vivo, Kochia scoparia
In short: as §2

[10] = system: eastern black nightshade; assay: Test C pre-/postemergence test; format: in vivo, Solanum ptycanthum; conditions: for Plant response rating, Nightshade: 31 g ai/ha, scale 0 to 100 (0 no effect, 100 complete control)
From the text: Seeds of plant species selected from blackgrass (Alopecurus myosuroides), downy brome (Bromus tectorum), green foxtail (Setaria viridis), Italian ryegrass (Lolium multiflorum), wheat (Triticum aestivum), wild oat (Avena fatua), catchweed bedstraw (Galium aparine), Russian thistle (Salsola kali), […] (Cynodon dactylon), Surinam grass (Brachiaria decumbens), cocklebur (Xanthium strumarium), corn (Zea mays), crabgrass (Digitaria sanguinalis), woolly cupgrass (Eriochloa villosa), giant foxtail (Setaria faberii), Goosegrass (Eleusin indica), johnsongrass (Sorghum halepense), kochia (Kochia scoparia), lambsquarters (Chenopodium album), morningglory (Ipomoea coccinea), eastern black nightshade (Solanum ptycanthum), yellow nutsedge (Cyperus esculentus), pigweed (Amaranthus retroflexus), common ragweed (Ambrosia elation), soybean (Glycine max), common (oilseed) sunflower (Helianthus annuus), and velvetleaf (Abutilon theophrasti) were planted and treated preemergence with test chemicals formulated in a non-phytotoxic solvent mixture which included a surfactant. At the same time, plants selected from these crop and weed species and also winter barley (Hordeum vulgare), canarygrass (Phalaris minor), and chickweed (Stellaria media) were treated with postemergence applications of some of the test chemicals formulated in the same manner. Plants ranged in height from 2 to 18 cm (1- to 4-leaf stage) for postemergence treatments. […] At time of treatment, test pots were flooded to 3 cm above the soil surface, treated by application of test compounds directly to the paddy water, and then maintained at that water depth for the duration of the test. […] A dash (-) response means no test result.

[11] = system: pigweed; assay: Test C pre-/postemergence test; format: in vivo, Amaranthus retroflexus
In short: as §2

[12] = system: common (oilseed) sunflower; assay: Test C pre-/postemergence test; format: in vivo, Helianthus annuus; conditions: for Plant response rating, Sunflower: 31 g ai/ha, scale 0 to 100 (0 no effect, 100 complete control)
In short: as §2

[13] = system: velvetleaf; assay: Test C pre-/postemergence test; format: in vivo, Abutilon theophrasti
In short: as §2

[14] = system: rice; assay: Test C flooded paddy test; format: in vivo, Oryza sativa; conditions: Flood
In short: (§3)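 Flooded 3 cm over soil; compound into paddy water; depth kept constant. Greenhouse 13–15 d.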

[15] = system: duck salad; assay: Test C flooded paddy test; format: in vivo, Heteranthera limosa; conditions: Flood
In short: as §3

[16] = system: barnyardgrass; assay: Test C flooded paddy test; format: in vivo, Echinochloa crus-galli; conditions: Flood
In short: as §3

[17] = Postemergence, 500 g ai/ha, 0 is no effect, 100 is complete control
[18] = Preemergence, 125 g ai/ha, 0 no effect, 100 complete control
[19] = preemergence, 250 g ai/ha, scale 0 (no effect) to 100 (complete control)
[20] = 62 g ai/ha, Preemergence, scale 0 to 100
[21] = 125 g ai/ha, preemergence, scale 0 (no effect) to 100 (complete control)
[22] = Preemergence, 31 g ai/ha, scale 0 to 100 (0 no effect, 100 complete control)
[23] = 62 g ai/ha, Preemergence, scale 0 to 100 (0 no effect, 100 complete control)
[24] = 62 g ai/ha, scale 0 to 100 (0 no effect, 100 complete control)
[25] = 250 g ai/ha, scale 0 to 100, 0 no effect, 100 complete control, 13 to 15 days
[26] = Postemergence, 125 g ai/ha, scale 0 to 100, 0 no effect, 100 complete control
[27] = Postemergence, 250 g ai/ha, scale 0 to 100, 0 no effect, 100 complete control

Cn1nc(OC(F)F)c(CS(=O)(=O)c2cccc[n+]2[O-])c1C(F)(F)F [Compound 80]
Plant response rating, Pigweed ([1]; Postemergence, 125 g ai/ha): 10
Pigweed plant response rating [1, 17]: 40
Pigweed plant response rating [1, 18]: 70
Plant response rating, Pigweed ([1]; Preemergence, 500 g ai/ha): 90
Plant response rating, Corn ([2]; Postemergence, 125 g ai/ha): 0
Corn plant response rating [2, 17]: 50
Corn plant response rating [2, 18]: 0
Plant response rating, Corn ([2]; Preemergence, 500 g ai/ha): 60
Blackgrass plant response rating [3, 19]: 90
Wheat plant response rating [4, 20]: 45
Wheat plant response rating [4, 21]: 65
Plant response rating, Wheat [4, 22]: 10
Wheat plant response rating [4, 19]: 80
Oat, Wild plant response rating [5, 20]: 85
Oat, Wild plant response rating [5, 21]: 95
Plant response rating, Oat, Wild [5, 22]: 70
Oat, Wild plant response rating [5, 19]: 100
Bermudagrass plant response rating [6, 23]: 100
Bermudagrass plant response rating [6, 21]: 100
Plant response rating, Bermudagrass [6, 22]: 100
Bermudagrass plant response rating [6, 19]: 100
Surinam Grass plant response rating [7, 20]: 80
Surinam Grass plant response rating [7, 21]: 80
Plant response rating, Surinam Grass [7, 22]: 70
Surinam Grass plant response rating [7, 19]: 100
Crabgrass, Large plant response rating [8, 20]: 85
Crabgrass, Large plant response rating [8, 21]: 85
Plant response rating, Crabgrass, Large [8, 22]: 85
Crabgrass, Large plant response rating [8, 19]: 98
Kochia plant response rating [9, 21]: 70
Plant response rating, Kochia [9, 22]: 0
Kochia plant response rating [9, 19]: 100
Nightshade plant response rating [10, 20]: 80
Plant response rating, Nightshade ([10]; Preemergence): 50
Nightshade plant response rating [10, 19]: 90
Pigweed plant response rating [11, 20]: 0
Pigweed plant response rating [11, 21]: 0
Plant response rating, Pigweed [11, 22]: 0
Pigweed plant response rating [11, 19]: 0
Sunflower plant response rating [12, 20]: 20
Sunflower plant response rating [12, 21]: 40
Plant response rating, Sunflower ([12]; Preemergence): 5
Sunflower plant response rating [12, 19]: 45
Velvetleaf plant response rating [13, 20]: 0
Velvetleaf plant response rating [13, 21]: 60
Plant response rating, Velvetleaf [13, 22]: 0
Velvetleaf plant response rating [13, 19]: 65
Plant response rating, Rice [14, 24]: 0
Plant response rating, Rice [14, 25]: 50
Plant response rating, Ducksalad [15, 24]: 0
Plant response rating, Ducksalad [15, 25]: 85
Plant response rating, Barnyardgrass [16, 24]: 0
Plant response rating, Barnyardgrass [16, 25]: 60

Cn1nc(C(F)(F)C(F)(F)F)c(C[S+]([O-])c2cccc[n+]2[O-])c1OCC(F)(F)F (stereo not shown) [Compound 79]
Plant response rating, Pigweed ([1]; Postemergence, 125 g ai/ha): 30
Pigweed plant response rating [1, 17]: 70
Pigweed plant response rating [1, 18]: 90
Plant response rating, Pigweed ([1]; Preemergence, 500 g ai/ha): 100
Plant response rating, Corn ([2]; Postemergence, 125 g ai/ha): 20
Corn plant response rating [2, 17]: 80
Corn plant response rating [2, 18]: 0
Plant response rating, Corn ([2]; Preemergence, 500 g ai/ha): 80
Blackgrass plant response rating [3, 20]: 100
Blackgrass plant response rating [3, 21]: 100
Plant response rating (0 to 100), Blackgrass ([3]; Postemergence, 31 g ai/ha): 70
Plant response rating (0 to 100), Blackgrass ([3]; Postemergence, 62 g ai/ha): 80
Plant response rating, Blackgrass [3, 26]: 90
Plant response rating, Blackgrass [3, 27]: 90
Plant response rating, Blackgrass [3, 22]: 98
Blackgrass plant response rating [3, 19]: 100
Wheat plant response rating [4, 20]: 10
Wheat plant response rating [4, 21]: 60
Plant response rating (0 to 100), Wheat ([4]; Postemergence, 31 g ai/ha): 0
Plant response rating (0 to 100), Wheat ([4]; Postemergence, 62 g ai/ha): 30
Plant response rating, Wheat [4, 26]: 60
Plant response rating, Wheat [4, 27]: 80
Plant response rating, Wheat [4, 22]: 10
Wheat plant response rating [4, 19]: 80
Oat, Wild plant response rating [5, 20]: 70
Oat, Wild plant response rating [5, 21]: 85
Plant response rating (0 to 100), Oat, Wild ([5]; Postemergence, 31 g ai/ha): 0
Plant response rating (0 to 100), Oat, Wild ([5]; Postemergence, 62 g ai/ha): 35
Plant response rating, Oat, Wild [5, 26]: 40
Plant response rating, Oat, Wild [5, 27]: 50
Plant response rating, Oat, Wild [5, 22]: 70
Oat, Wild plant response rating [5, 19]: 90
Bermudagrass plant response rating [6, 23]: 100
Bermudagrass plant response rating [6, 21]: 100
Plant response rating (0 to 100), Bermudagrass ([6]; Postemergence, 31 g ai/ha): 0
Plant response rating (0 to 100), Bermudagrass ([6]; Postemergence, 62 g ai/ha): 0
Plant response rating, Bermudagrass [6, 26]: 45
Plant response rating, Bermudagrass [6, 27]: 50
Plant response rating, Bermudagrass [6, 22]: 95
Bermudagrass plant response rating [6, 19]: 100
Surinam Grass plant response rating [7, 20]: 85
Surinam Grass plant response rating [7, 21]: 98
Plant response rating (0 to 100), Surinam Grass ([7]; Postemergence, 31 g ai/ha): 0
Plant response rating (0 to 100), Surinam Grass ([7]; Postemergence, 62 g ai/ha): 0
Plant response rating, Surinam Grass [7, 26]: 30
Plant response rating, Surinam Grass [7, 27]: 85
Plant response rating, Surinam Grass [7, 22]: 60
Surinam Grass plant response rating [7, 19]: 100
Crabgrass, Large plant response rating [8, 20]: 80
Crabgrass, Large plant response rating [8, 21]: 100
Plant response rating (0 to 100), Crabgrass, Large ([8]; Postemergence, 31 g ai/ha): 0
Plant response rating (0 to 100), Crabgrass, Large ([8]; Postemergence, 62 g ai/ha): 0
Plant response rating, Crabgrass, Large [8, 26]: 0
Plant response rating, Crabgrass, Large [8, 27]: 50
Plant response rating, Crabgrass, Large [8, 22]: 40
Crabgrass, Large plant response rating [8, 19]: 100
Kochia plant response rating [9, 20]: 100
Kochia plant response rating [9, 21]: 100
Plant response rating (0 to 100), Kochia ([9]; Postemergence, 31 g ai/ha): 0
Plant response rating (0 to 100), Kochia ([9]; Postemergence, 62 g ai/ha): 0
Plant response rating, Kochia [9, 26]: 0
Plant response rating, Kochia [9, 27]: 0
Plant response rating, Kochia [9, 22]: 100
Kochia plant response rating [9, 19]: 100
Nightshade plant response rating [10, 20]: 50
Nightshade plant response rating [10, 21]: 50
Plant response rating, Nightshade ([10]; Preemergence): 40
Nightshade plant response rating [10, 19]: 100
Pigweed plant response rating [11, 21]: 70
Plant response rating (0 to 100), Pigweed ([11]; Postemergence, 31 g ai/ha): 0
Plant response rating (0 to 100), Pigweed ([11]; Postemergence, 62 g ai/ha): 0
Plant response rating, Pigweed [11, 26]: 20
Plant response rating, Pigweed [11, 27]: 60
Pigweed plant response rating [11, 19]: 100
Sunflower plant response rating [12, 20]: 60
Sunflower plant response rating [12, 21]: 100
Plant response rating, Sunflower ([12]; Preemergence): 40
Sunflower plant response rating [12, 19]: 100
Velvetleaf plant response rating [13, 20]: 100
Velvetleaf plant response rating [13, 21]: 100
Plant response rating (0 to 100), Velvetleaf ([13]; Postemergence, 31 g ai/ha): 0
Plant response rating (0 to 100), Velvetleaf ([13]; Postemergence, 62 g ai/ha): 0
Plant response rating, Velvetleaf [13, 26]: 50
Plant response rating, Velvetleaf [13, 27]: 70
Plant response rating, Velvetleaf [13, 22]: 100
Velvetleaf plant response rating [13, 19]: 100
Plant response rating, Rice [14, 24]: 70
Plant response rating, Rice [14, 25]: 80
Plant response rating, Ducksalad [15, 24]: 90
Plant response rating, Ducksalad [15, 25]: 100
Plant response rating, Barnyardgrass [16, 24]: 0
Plant response rating, Barnyardgrass [16, 25]: 70
